Reference: PubChem BioAssay AID1259407 (Chemical Carcinogenesis Research Information System (CCRIS), 2018)
Active and inactive are the calls of the source. No rule for the calls is given here.

System: CCRIS mutagenicity, Ames/micronucleus/aberration tests
Assay: CCRIS mutagenicity studies
[1] = Test System: AMES SALMONELLA TYPHIMURIUM, Strain/Indicator: TA98, Metabolic Activation: NONE, Method: STANDARD PLATE
[2] = Test System: AMES SALMONELLA TYPHIMURIUM, Strain/Indicator: TA98, Metabolic Activation: RAT, LIVER, S-9, AROCLOR 1254, Method: STANDARD PLATE
[3] = Test System: AMES SALMONELLA TYPHIMURIUM, Strain/Indicator: TA100, Metabolic Activation: NONE, Method: STANDARD PLATE
[4] = Test System: AMES SALMONELLA TYPHIMURIUM, Strain/Indicator: TA100, Metabolic Activation: RAT, LIVER, S-9, AROCLOR 1254, Method: STANDARD PLATE
[5] = Test System: AMES SALMONELLA TYPHIMURIUM, Strain/Indicator: TA1537, Metabolic Activation: NONE, Method: STANDARD PLATE
[6] = Test System: AMES SALMONELLA TYPHIMURIUM, Strain/Indicator: TA1537, Metabolic Activation: RAT, LIVER, S-9, AROCLOR 1254, Method: STANDARD PLATE
[7] = Test System: AMES SALMONELLA TYPHIMURIUM, Strain/Indicator: TA1538, Metabolic Activation: NONE, Method: STANDARD PLATE
[8] = Test System: AMES SALMONELLA TYPHIMURIUM, Strain/Indicator: TA1535, Metabolic Activation: NONE, Method: STANDARD PLATE
[9] = Test System: AMES SALMONELLA TYPHIMURIUM, Strain/Indicator: TA1535, Metabolic Activation: RAT, LIVER, S-9, AROCLOR 1254, Method: STANDARD PLATE
[10] = Test System: AMES SALMONELLA TYPHIMURIUM, Strain/Indicator: TA1538, Metabolic Activation: RAT, LIVER, S-9, AROCLOR 1254, Method: STANDARD PLATE
[11] = Test System: AMES SALMONELLA TYPHIMURIUM, Strain/Indicator: TA98, Metabolic Activation: NONE, Method: PREINCUBATION

| Structure (SMILES) | mutagenic call [1] | mutagenic call [2] | mutagenic call [3] | mutagenic call [4] | mutagenic call [5] | mutagenic call [6] | mutagenic call [7] | mutagenic call [8] | mutagenic call [9] | mutagenic call [10] | also measured |
| --- | --- | --- | --- | --- | --- | --- | --- | --- | --- | --- | --- |
| C=C1C(=O)[C@]23CCC4[C@](C)(CCC[C@@]4(C)C(=O)O)C2CC[C@@]1(O)C3 (stereo partly drawn) | – | – | – | – | – | – | – | – | – | – | mutagenic call (Test System: AMES SALMONELLA TYPHIMURIUM, Strain/Indicator: TM677, Metabolic Activation: NONE, Method: PREINCUBATION): active; positive |
| CNc1ccc(NCCO)c2c1C(=O)c1ccccc1C2=O | inactive; negative | active; positive | inactive; negative | inactive; negative | inactive; negative | active; positive | inactive; negative | – | – | – | mutagenic call (Test System: AMES SALMONELLA TYPHIMURIUM, Strain/Indicator: TA102, Metabolic Activation: NONE, Method: STANDARD PLATE): inactive; negative; mutagenic call (Test System: AMES SALMONELLA TYPHIMURIUM, Strain/Indicator: TA102, Metabolic Activation: RAT, LIVER, S-9, AROCLOR 1254, Method: STANDARD PLATE): active; positive; mutagenic call (Test System: AMES SALMONELLA TYPHIMURIUM, Strain/Indicator: TA104, Metabolic Activation: NONE, Method: STANDARD PLATE): inactive; negative; mutagenic call (Test System: MOUSE LYMPHOMA, Strain/Indicator: L5178Y (TK+/TK-), Metabolic Activation: NONE, Method: SUSPENSION PLATE): active; positive; mutagenic call (Test System: MOUSE LYMPHOMA, Strain/Indicator: L5178Y (TK+/TK-), Metabolic Activation: NONE, Method: SUSPENSION/PLATE): active; positive; mutagenic call (Test System: MOUSE LYMPHOMA, Strain/Indicator: L5178Y (TK+/TK-), Metabolic Activation: RAT, LIVER, S-9, AROCLOR 1254, Method: SUSPENSION PLATE): active; positive |
| C#C[C@]1(O)CC[C@H]2[C@@H]3CCC4=CC(=O)CC[C@@H]4[C@H]3CC[C@@]21CC | inactive; negative | inactive; negative | inactive; negative | inactive; negative | inactive; negative | inactive; negative | inactive; negative | inactive; negative | inactive; negative | inactive; negative | mutagenic call (End Point: IN VITRO CHROMOSOMAL ABERRATIONS, Test System: HUMAN LYMPHOCYTES, Metabolic Activation: NONE): active; positive at two higher doses (structural changes); mutagenic call (End Point: IN VITRO CHROMOSOMAL ABERRATIONS, Test System: HUMAN LYMPHOCYTES, Metabolic Activation: RAT, LIVER, S-9, PHENOBARBITONE): active; positive at all dose levels (structural changes); mutagenic call (Test System: AMES SALMONELLA TYPHIMURIUM, Strain/Indicator: TA98, Metabolic Activation: MOUSE, LIVER, S-9, Method: STANDARD PLATE): inactive; negative; mutagenic call (Test System: AMES SALMONELLA TYPHIMURIUM, Strain/Indicator: TA100, Metabolic Activation: MOUSE, LIVER, S-9, Method: STANDARD PLATE): inactive; negative; mutagenic call (Test System: AMES SALMONELLA TYPHIMURIUM, Strain/Indicator: TA1535, Metabolic Activation: MOUSE, LIVER, S-9, Method: STANDARD PLATE): inactive; negative; mutagenic call (Test System: AMES SALMONELLA TYPHIMURIUM, Strain/Indicator: TA1537, Metabolic Activation: MOUSE, LIVER, S-9, Method: STANDARD PLATE): inactive; negative; mutagenic call (Test System: AMES SALMONELLA TYPHIMURIUM, Strain/Indicator: TA1538, Metabolic Activation: MOUSE, LIVER, S-9, Method: STANDARD PLATE): inactive; negative |
| CN1CCC(=C2c3ccccc3C=Cc3ccccc32)CC1 | inactive; negative | inactive; negative | inactive; negative | inactive; negative | inactive; negative | inactive; negative | inactive; negative | inactive; negative | inactive; negative | inactive; negative | – |
| O=C(O)c1ccc(ON2P(Oc3ccc(C(=O)O)cc3)N=P(Oc3ccc(C(=O)O)cc3)(Oc3ccc(C(=O)O)cc3)N(Oc3ccc(C(=O)O)cc3)P2Oc2ccc(C(=O)O)cc2)cc1 (stereo not drawn) | inactive; negative | inactive; negative | inactive; negative | inactive; negative | – | – | – | – | – | – | – |
| C[C@]12CCC(=O)C=C1[C@@H]1C[C@@H]1[C@H]1[C@@H]3[C@@H]4C[C@@H]4[C@@]4(CCC(=O)O4)[C@@]3(C)CC[C@@H]12 | inactive; negative | inactive; negative | inactive; negative | inactive; negative | inactive; negative | inactive; negative | inactive; negative | inactive; negative | inactive; negative | inactive; negative | mutagenic call (End Point: IN VITRO CHROMOSOMAL ABERRATIONS, Test System: HUMAN PERIPHERAL LYMPHOCYTES, Metabolic Activation: NONE): inactive; negative; mutagenic call (End Point: IN VITRO CHROMOSOMAL ABERRATIONS, Test System: HUMAN PERIPHERAL LYMPHOCYTES, Metabolic Activation: RAT, LIVER, S-9, AROCLOR 1254): inactive; negative; mutagenic call (End Point: IN VIVO MICRONUCLEUS, Test System: BONE MARROW POLYCHROMATIC ERYTHROCYTES, Species: MOUSE, Strain/Sex: NMRI/MALE, FEMALE, Route: INTRAGASTRIC): inactive; negative; mutagenic call [11]: inactive; negative; mutagenic call (Test System: AMES SALMONELLA TYPHIMURIUM, Strain/Indicator: TA98, Metabolic Activation: RAT, LIVER, S-9, AROCLOR 1254, Method: PREINCUBATION): inactive; negative; mutagenic call (Test System: AMES SALMONELLA TYPHIMURIUM, Strain/Indicator: TA100, Metabolic Activation: NONE, Method: PREINCUBATION): inactive; negative; mutagenic call (Test System: AMES SALMONELLA TYPHIMURIUM, Strain/Indicator: TA100, Metabolic Activation: RAT, LIVER, S-9, AROCLOR 1254, Method: PREINCUBATION): inactive; negative; mutagenic call (Test System: AMES SALMONELLA TYPHIMURIUM, Strain/Indicator: TA1535, Metabolic Activation: NONE, Method: PREINCUBATION): inactive; negative; mutagenic call (Test System: AMES SALMONELLA TYPHIMURIUM, Strain/Indicator: TA1535, Metabolic Activation: RAT, LIVER, S-9, AROCLOR 1254, Method: PREINCUBATION): inactive; negative; mutagenic call (Test System: AMES SALMONELLA TYPHIMURIUM, Strain/Indicator: TA1537, Metabolic Activation: NONE, Method: PREINCUBATION): inactive; negative; mutagenic call (Test System: AMES SALMONELLA TYPHIMURIUM, Strain/Indicator: TA1537, Metabolic Activation: RAT, LIVER, S-9, AROCLOR 1254, Method: PREINCUBATION): inactive; negative; mutagenic call (Test System: AMES SALMONELLA TYPHIMURIUM, Strain/Indicator: TA1538, Metabolic Activation: NONE, Method: PREINCUBATION): inactive; negative; mutagenic call (Test System: AMES SALMONELLA TYPHIMURIUM, Strain/Indicator: TA1538, Metabolic Activation: RAT, LIVER, S-9, AROCLOR 1254, Method: PREINCUBATION): inactive; negative; mutagenic call (Test System: CHINESE HAMSTER V-79, Strain/Indicator: V-79 (HGPRT)/6-THIOGUANINE, Metabolic Activation: NONE): inactive; negative; mutagenic call (Test System: CHINESE HAMSTER V-79, Strain/Indicator: V-79 (HGPRT)/6-THIOGUANINE, Metabolic Activation: RAT, LIVER, S-9, AROCLOR 1254): inactive; negative |
| CCCCNC(=O)C=Cc1ccc([N+](=O)[O-])o1 | – | – | – | – | – | – | – | – | – | – | mutagenic call [11]: active; positive |
| COc1cc([N+](=O)[O-])ccc1NC(C)=O | active; positive | inactive; negative | – | – | – | – | – | – | – | – | – |
